From ChEMBL document CHEMBL4813993, “Design and synthesis of diosgenin derivatives as apoptosis inducers through mitochondria-related pathways” (Eur J Med Chem, 2021)
Calls of active or inactive are those of the source. No cut-off for these calls is given here.

Experiments:
MCF7 = experiment: Cytotoxicity against human MCF7 cells assessed as inhibition of cell growth incubated for 48 hrs by CCK-8 assay; format: functional, cell-based; conditions: MCF7, 48 h
K562 [1] = experiment: Induction of mitochondrial membrane potential loss in human K562 cells assessed as cell population with intact mitochondrial membrane potential at 6 uM after 48 hrs by JC1 dye-based flow cytometry analysis (reference value: 96.48%); format: functional
K562 [2] = experiment: Induction of ROS generation in human K562 cells at 6 uM incubated for 48 hrs by DCFH-DA staining-based flow cytometry (reference value: 3.68 %); format: functional
K562 [3] = experiment: Induction of mitochondrial membrane potential loss in human K562 cells assessed as cell population with intact mitochondrial membrane potential at 3 uM after 48 hrs by JC1 dye-based flow cytometry analysis (reference value: 96.48%); format: functional
K562 [4] = experiment: Potency index, ratio of 5-FU IC50 to test compound IC50 for cytotoxicity against human K562 cells assessed as inhibition of cell growth incubated for 48 hrs by CCK-8 assay; format: functional
K562 [5] = experiment: Induction of apoptosis in human K562 cells assessed as increase in Bax protein expression at 3 to 12 uM after 48 hrs by Western blot analysis; format: functional, cell-based; conditions: dose 3-12 µM
K562 [6] = experiment: Induction of apoptosis in human K562 cells assessed as decrease in cell density at 3 to 12 uM incubated for 48 hrs by light microscopic analysis; format: functional, cell-based; conditions: dose 3-12 µM
K562 [7] = experiment: Induction of apoptosis in human K562 cells assessed as increase in cleaved PARP gene expression at 3 to 12 uM after 48 hrs by SYBR green dye-based qRT-PCR analysis; format: functional, cell-based; conditions: dose 3-12 µM
A549 [8] = experiment: Cytotoxicity against human A549 cells assessed as inhibition of cell growth incubated for 48 hrs by CCK-8 assay; format: functional, cell-based; conditions: A549, 48 h
K562 [9] = experiment: Induction of apoptosis in human K562 cells assessed as increase in cleaved caspase 9 gene expression at 3 to 12 uM after 48 hrs by SYBR green dye-based qRT-PCR analysis; format: functional, cell-based; conditions: dose 3-12 µM
K562 [10] = experiment: Induction of apoptosis in human K562 cells assessed as increase in cleaved caspase 9 protein expression at 3 to 12 uM after 48 hrs by Western blot analysis; format: functional, cell-based; conditions: dose 3-12 µM
K562 [11] = experiment: Induction of apoptosis in human K562 cells assessed as late apoptotic cells at 6 uM incubated for 48 hrs by annexin V-FITC/PI staining based flow cytometry (reference value: 0.11 %); format: functional
MKN-45 = experiment: Cytotoxicity against human MNK45 cells assessed as inhibition of cell growth incubated for 48 hrs by CCK-8 assay; format: functional, cell-based; conditions: MKN-45, 48 h
K562 [12] = experiment: Induction of apoptosis in human K562 cells assessed as increase in cleaved PARP protein expression at 3 to 12 uM after 48 hrs by Western blot analysis; format: functional, cell-based; conditions: dose 3-12 µM
HepG2 = experiment: Cytotoxicity against human HepG2 cells assessed as inhibition of cell growth incubated for 48 hrs by CCK-8 assay; format: functional, cell-based; conditions: HepG2, 48 h
K562 [13] = experiment: Induction of mitochondrial membrane potential loss in human K562 cells assessed as cell population with intact mitochondrial membrane potential at 12 uM after 48 hrs by JC1 dye-based flow cytometry analysis (reference value: 96.48%); format: functional
K562 [14] = experiment: Potency index, ratio of diosgenin IC50 to test compound IC50 for cytotoxicity against human K562 cells assessed as inhibition of cell growth incubated for 48 hrs by CCK-8 assay; format: functional
K562 [15] = experiment: Induction of apoptosis in human K562 cells assessed as nuclear fragmentation at 3 to 12 uM incubated for 48 hrs by Hoechst 33342/PI staining based fluorescence microscopic analysis; format: functional, cell-based; conditions: dose 3-12 µM
K562 [16] = experiment: Induction of apoptosis in human K562 cells assessed as increase in cleaved caspase 3 gene expression at 3 to 12 uM after 48 hrs by SYBR green dye-based qRT-PCR analysis; format: functional, cell-based; conditions: dose 3-12 µM
K562 [17] = experiment: Induction of apoptosis in human K562 cells assessed as late apoptotic cells at 3 uM incubated for 48 hrs by annexin V-FITC/PI staining based flow cytometry (reference value: 0.11 %); format: functional
K562 [18] = experiment: Induction of ROS generation in human K562 cells at 12 uM incubated for 48 hrs by DCFH-DA staining-based flow cytometry (reference value: 3.68 %); format: functional
K562 [19] = experiment: Induction of apoptosis in human K562 cells assessed as increase in Bax gene expression at 3 to 12 uM after 48 hrs by SYBR green dye-based qRT-PCR analysis; format: functional, cell-based; conditions: dose 3-12 µM
K562 [20] = experiment: Induction of mitochondrial membrane potential loss in human K562 cells assessed as cell population with mitochondrial membrane potential collapse at 12 uM after 48 hrs by JC1 dye-based flow cytometry analysis (reference value: 2.75%); format: functional
K562 [21] = experiment: Induction of apoptosis in human K562 cells assessed as early apoptotic cells at 6 uM incubated for 48 hrs by annexin V-FITC/PI staining based flow cytometry (reference value: 0.32 %); format: functional
K562 [22] = experiment: Induction of apoptosis in human K562 cells assessed as decrease in cell density at 3 to 12 uM incubated for 48 hrs by Hoechst 33342/PI staining based fluorescence microscopic analysis; format: functional; conditions: dose 3-12 µM
K562 [23] = experiment: Induction of ROS generation in human K562 cells at 3 uM incubated for 48 hrs by DCFH-DA staining-based flow cytometry (reference value: 3.68 %); format: functional
K562 [24] = experiment: Induction of apoptosis in human K562 cells assessed as late apoptotic cells at 12 uM incubated for 48 hrs by annexin V-FITC/PI staining based flow cytometry (reference value: 0.11 %); format: functional
K562 [25] = experiment: Induction of mitochondrial membrane potential loss in human K562 cells assessed as cell population with mitochondrial membrane potential collapse at 3 uM after 48 hrs by JC1 dye-based flow cytometry analysis (reference value: 2.75%); format: functional
K562 [26] = experiment: Cytotoxicity against human K562 cells assessed as inhibition of cell growth incubated for 48 hrs by CCK-8 assay; format: functional, cell-based; conditions: K562, 48 h
K562 [27] = experiment: Induction of apoptosis in human K562 cells assessed as chromatin condensation at 3 to 12 uM incubated for 48 hrs by Hoechst 33342/PI staining based fluorescence microscopic analysis; format: functional, cell-based; conditions: dose 3-12 µM
T-24 = experiment: Cytotoxicity against human T24 cells assessed as inhibition of cell growth incubated for 48 hrs by CCK-8 assay; format: functional, cell-based; conditions: T-24, 48 h
K562 [28] = experiment: Induction of apoptosis in human K562 cells assessed as increase in number of broken cells at 3 to 12 uM incubated for 48 hrs by light microscopic analysis; format: functional, cell-based; conditions: dose 3-12 µM
K562 [29] = experiment: Induction of apoptosis in human K562 cells assessed as early apoptotic cells at 12 uM incubated for 48 hrs by annexin V-FITC/PI staining based flow cytometry (reference value: 0.32 %); format: functional
K562 [30] = experiment: Induction of apoptosis in human K562 cells assessed as decrease in Bcl-2 gene expression after 48 hrs by SYBR green dye-based qRT-PCR analysis; format: functional, cell-based; conditions: dose 3-12 µM
K562 [31] = experiment: Induction of apoptosis in human K562 cells assessed as early apoptotic cells at 3 uM incubated for 48 hrs by annexin V-FITC/PI staining based flow cytometry (reference value: 0.32 %); format: functional
K562 [32] = experiment: Induction of apoptosis in human K562 cells assessed as increase in cytochrome c protein expression after 48 hrs by Western blot analysis; format: functional, cell-based; conditions: dose 3-12 µM
K562 [33] = experiment: Induction of apoptosis in human K562 cells assessed as increase in cleaved caspase 3 protein expression at 3 to 12 uM after 48 hrs by Western blot analysis; format: functional, cell-based; conditions: dose 3-12 µM
A549 [34] = experiment: Potency index, ratio of diosgenin IC50 to test compound IC50 for cytotoxicity against human A549 cells assessed as inhibition of cell growth incubated for 48 hrs by CCK-8 assay; format: functional
K562 [35] = experiment: Induction of mitochondrial membrane potential loss in human K562 cells assessed as cell population with mitochondrial membrane potential collapse at 6 uM after 48 hrs by JC1 dye-based flow cytometry analysis (reference value: 2.75%); format: functional
K562 [36] = experiment: Induction of apoptosis in human K562 cells assessed as decrease in Bcl-2 protein expression after 48 hrs by Western blot analysis; format: functional, cell-based; conditions: dose 3-12 µM

CC(=O)O[C@H]1CC[C@@]2(C)C(=CC[C@H]3[C@@H]4C[C@@H]5O[C@H](CC[C@@H](C)COC(=O)[C@@H](N)Cc6c[nH]c7ccccc67)[C@@H](C)[C@@H]5[C@@]4(C)CC[C@@H]32)C1
IC50 (MCF7): 11.3 µM | Activity (K562 [1]): 75.88% | Activity (K562 [2]): 22.26% | Activity (K562 [3]): 90.01% | Ratio IC50 (K562 [4]): 4.3 | Activity (K562 [5]): Active | Activity (K562 [6]): Active | Activity (K562 [7]): Active | IC50 (A549 [8]): 7.82 µM | Activity (K562 [9]): Active | Activity (K562 [10]): Active | Activity (K562 [11]): 14.13% | IC50 (MKN-45): 16.2 µM | Activity (K562 [12]): Active | IC50 (HepG2): 12.7 µM | Activity (K562 [13]): 27.71% | Ratio IC50 (K562 [14]): 6.8 | Activity (K562 [15]): Active | Activity (K562 [16]): Active | Activity (K562 [17]): 9.13% | Activity (K562 [18]): 34.25% | Activity (K562 [19]): Active | Activity (K562 [20]): 67.81% | Activity (K562 [21]): 11.42% | Activity (K562 [22]): Active | Activity (K562 [23]): 16.85% | Activity (K562 [24]): 18.85% | Activity (K562 [25]): 8.78% | IC50 (K562 [26]): 4.41 µM | Activity (K562 [27]): Active | IC50 (T-24): 6.34 µM | Activity (K562 [28]): Active | Activity (K562 [29]): 21.45% | Activity (K562 [30]): Dose-Dependent Effect | Activity (K562 [31]): 4.78% | Activity (K562 [32]): Dose-Dependent Effect | Activity (K562 [33]): Active | Ratio IC50 (A549 [34]): 4.2 | Activity (K562 [35]): 21.23% | Activity (K562 [36]): Dose-Dependent Effect
